According to US20260297092A1, “PYRAZOLOPYRIMIDINE DERIVATIVES AS INHIBITORS OF NLRP3” (Takeda Pharmaceutical Company Limited, priority 2023, published 2026):

Each compound was assayed on NLRP3 inflammasome (IL-1β production in THP-1 cells) (assay: IL-1β TR-FRET Assay (percentage of inhibition at 300 nM, 6 μM or 10 μM)). Conditions: Homo sapiens, THP-1, 300 nM, LPS priming, ATP activation, read-out: IL-1β inhibitory rate at 300 nM (%).
Assay type: cell-based, human
Procedure: The biological activity of the compound of Formula 1 with respect to NLRP3 was determined using the following in vitro method.
IL-1β TR-FRET Assay (reported as percentage of inhibition at 300 nM, 6 μM or 10 μM)
Monocytic THP-1 cells (ATCC: TIB-202) were maintained in accordance with the provider's instructions in RPMI media (Life Technologies, Cat #A10491-01); RPMI was supplemented with 10% heat inactivated fetal bovine serum (Corning, Cat #35-010-CV). The cells were differentiated into macrophages by the addition of 25 ng/mL IFN-γ (PeproTech, Cat #AF-300-02-100UG) for 24 hours at 37° C./5% CO2. Media was exchanged with fresh media with no FBS, and the cells were treated with 50 ng/mL LPS (priming step) (LPS-EK: Invivogen, Cat #tlrl-peklps). The cells were plated at 20,000 cells per well in 384-well flat-bottom cell culture plates (FALCON, Cat #353962) and were incubated for 24 hours at 37° C./5% CO2. Compounds were serially diluted (half log or 5-fold dilutions) with DMSO and were finally diluted with Media with no FBS. The compounds were added to the cells in 384-well plates (added in 1:3) and then the plates were incubated for 30 minutes at 37° C./5% CO2. The NLRP3 inflammasome was activated with the addition of 20 mM ATP (Sigma Cat #A3377-25G) and the cells were incubated for 2 hours at 37° C./5% CO2. At the end of the incubation period, 30 μL supernatant was transferred to another 384-well plate and mixed on a plate shaker for 1 minute. The supernatant was mixed with HTRF Antibody (Human IL1 beta kit, Cisbio, 62HIL1BPEH) in assay plates (Greiner Bio-One, Cat #784075) and the assay plates were incubated in shading box at room temperature for 16-24 hours. HTRF signal was measured by EnVision (Perkinelmer) in accordance with the manufacturer's instructions.
The percentage of inhibition at 300 nM, 6 μM or 10 μM in the IL-1βTR-FRET assay was calculated by the following formula: Percentage of inhibition=[1−(HTRF signaltest−HTRF signalLow)/(HTRF signalHigh−HTRF signalLow)]*100, where HTRF signaltest is the HTRF signal in the well to which test compound is added, HTRF signalLow is the HTRF signal in the well to which 3 μM MCC-950 is added, and the HTRF signalHigh is the HTRF signal in the well to which DMSO is added.

| Structure (SMILES) | inhibition at 0.3 µM |
| --- | --- |
| Cc1cc(C2CC2)cc(C)c1-n1cc2c(=O)[nH]c(-c3cnn(C)c3)nc2n1 [Example 217, 2-(4-cyclopropyl-2,6-dimethylphenyl)-6-(1-methyl-1H-pyrazol-4-yl)-2,5-dihydro-4H-pyrazolo[3,4-d]pyrimidin-4-one] | 108% |
| Cc1ccc(-n2cc3c(=O)[nH]c(O[C@H]4C[C@H](C#N)C4)nc3n2)c(C)c1 [Example 219, 3-{[2-(2,4-dimethylphenyl)-4-oxo-4,5-dihydro-2H-pyrazolo[3,4-d]pyrimidin-6-yl]oxy}cyclobutane-1-carbonitrile] | 96% |
| Cc1ccc(-n2cc3c(=O)[nH]c(OCC(F)F)nc3n2)c(C)c1 [Example 220, 6-(2,2-difluoroethoxy)-2-(2,4-dimethylphenyl)-2,5-dihydro-4H-pyrazolo [3,4-d]pyrimidin-4-one] | 71% |
| CCOc1nc2nn(-c3c(C)cc(Br)cc3OC(F)F)cc2c(=O)[nH]1 [Example 221, 2-[4-bromo-2-(difluoromethoxy)-6-methylphenyl]-6-ethoxy-2,5-dihydro-4H-pyrazolo[3,4-d]pyrimidin-4-one] | 99% |
| COCCOc1nc2nn(-c3c(C)cc(C4CC4)cc3OC(F)F)cc2c(=O)[nH]1 [Example 225, 2-[4-cyclopropyl-2-(difluoromethoxy)-6-methylphenyl]-6-(2-methoxyethoxy)-2,5-dihydro-4H-pyrazolo[3,4-d]pyrimidin-4-one] | 100% |

Same assay, conditions: Homo sapiens, THP-1, 6 μM, LPS priming, ATP activation, read-out: IL-1β inhibitory rate at 6 μM (%)

| Structure (SMILES) | inhibition at 6 µM |
| --- | --- |
| Cc1cc(C2CC2)cc(C)c1-n1cc2c(=O)[nH]c([C@H]3CCCCO3)nc2n1 [Example 233, 2-(4-cyclopropyl-2,6-dimethylphenyl)-6-(oxan-2-yl)-2,5-dihydro-4H-pyrazolo[3,4-d]pyrimidin-4-one] | 93% |
| CCOC(Cc1nc2nn(-c3c(C)cc(C4CC4)cc3C)cc2c(=O)[nH]1)OCC [Example 234, 2-(4-cyclopropyl-2,6-dimethylphenyl)-6-(2,2-diethoxyethyl)-2,5-dihydro-4H-pyrazolo[3,4-d]pyrimidin-4-one] | 90% |
| Cc1cc(C2CC2)cc(C)c1-n1cc2c(=O)[nH]c(COC3COC3)nc2n1 [Example 236, 2-(4-cyclopropyl-2,6-dimethylphenyl)-6-{[(oxetan-3-yl)oxy]methyl}-2,5-dihydro-4H-pyrazolo[3,4-d]pyrimidin-4-one] | 93% |
| Cc1cc(C2CC2)cc(C)c1-n1cc2c(=O)[nH]c(CN3CCCO3)nc2n1 [Example 237, 2-(4-cyclopropyl-2,6-dimethylphenyl)-6-[(1,2-oxazolidin-2-yl)methyl]-2,5-dihydro-4H-pyrazolo[3,4-d]pyrimidin-4-one] | 98% |
| Cc1cc(C2CC2)cc(C)c1-n1cc2c(=O)[nH]c(C3(F)CCOCC3)nc2n1 [Example 238, 2-(4-cyclopropyl-2,6-dimethylphenyl)-6-(4-fluorooxan-4-yl)-2,5-dihydro-4H-pyrazolo[3,4-d]pyrimidin-4-one] | 97% |
| CCCc1nc2nn(-c3c(C)cc(C4CC4)cc3C)cc2c(=O)[nH]1 [Example 240, 2-(4-cyclopropyl-2,6-dimethylphenyl)-6-propyl-2,5-dihydro-4H-pyrazolo[3,4-d]pyrimidin-4-one] | 101% |
| Cc1cc(C2CC2)cc(C)c1-n1cc2c(=O)[nH]c(-c3ncc(C(F)(F)F)[nH]3)nc2n1 [Example 242, 2-(4-cyclopropyl-2,6-dimethylphenyl)-6-[5-(trifluoromethyl)-1H-imidazol-2-yl]-2,5-dihydro-4H-pyrazolo[3,4-d]pyrimidin-4-one] | 104% |
| CO[C@H]1C[C@@H](Oc2nc3nn(-c4ccc(C)cc4C)cc3c(=O)[nH]2)C1 [Example 243, 2-(2,4-dimethylphenyl)-6-{[(1s,3s)-3-methoxycyclobutyl]oxy}-2,5-dihydro-4H-pyrazolo[3,4-d]pyrimidin-4-one] | 100% |
| CO[C@H]1C[C@H](Oc2nc3nn(-c4ccc(C)cc4C)cc3c(=O)[nH]2)C1 [Example 244, 2-(2,4-dimethylphenyl)-6-{[(1r,3r)-3-methoxycyclobutyl]oxy}-2,5-dihydro-4H-pyrazolo[3,4-d]pyrimidin-4-one] | 100% |
